Assay results as given in ChEMBL document CHEMBL4619766, “Eudesmacarbonate, a Eudesmane-Type Sesquiterpene from a Marine Filamentous Cyanobacterial Mat (Oscillatoriales) in the Florida Keys” (J Nat Prod, 2020).

How the values were obtained:
[1] = Neurotoxicity in 4 to 5 hpf stage wild type zebrafish AB embryo assessed as effect on spontaneous coiling frequency at >= 38 uM under 14 hrs light and 10 hrs dark condition and measured at 24 hpf stage by microscopic analysis; format: toxicity, Danio rerio; conditions: in vivo
[2] = Toxicity in 4 to 5 hpf stage wild type zebrafish AB embryo assessed as effect on heart rate at 9.4 to 94 uM under 14 hrs light and 10 hrs dark condition and measured at 3 dpf stage by microscopic analysis; parameters: species or system Danio rerio; conditions: in vivo
[3] = Neurotoxicity in 4 to 5 hpf stage wild type zebrafish AB embryo assessed as irregular inflated swim bladder at 9.4 to 94 uM under 14 hrs light and 10 hrs dark condition and measured at 5 dpf stage by microscopic analysis; format: toxicity, Danio rerio; conditions: in vivo
[4] = Neurotoxicity in 4 to 5 hpf stage wild type zebrafish AB embryo assessed as irregular development of swim bladder dysfunction at 9.4 to 94 uM under 14 hrs light and 10 hrs dark condition and measured at 5 dpf stage by microscopic analysis; format: toxicity, Danio rerio; conditions: in vivo
[5] = Neurotoxicity in 4 to 5 hpf stage wild type zebrafish AB embryo assessed as induction of head butting at 9.4 to 94 uM under 14 hrs light and 10 hrs dark condition and measured at 5 dpf stage by microscopic analysis; format: toxicity, Danio rerio; conditions: in vivo
[6] = Neurotoxicity in 4 to 5 hpf stage wild type zebrafish AB embryo assessed as induction of motor incoordination at 9.4 to 94 uM under 14 hrs light and 10 hrs dark condition and measured at 5 dpf stage by microscopic analysis; format: toxicity, Danio rerio; conditions: in vivo
[7] = Neurotoxicity in 4 to 5 hpf stage wild type zebrafish AB embryo assessed as effect on spasms at 9.4 to 94 uM under 14 hrs light and 10 hrs dark condition and measured at 5 dpf stage by microscopic analysis; format: toxicity, Danio rerio; conditions: in vivo
[8] = Neurotoxicity in 7 dpf stage zebra fish PSA larvae assessed induction of larval immobilization at 110 to 190 uM measured within 45 mins; format: toxicity, Danio rerio; conditions: zebrafish, 0.75 h
[9] = Neurotoxicity in 7 dpf stage zebra fish PSA larvae assessed induction of larval immobilization at 38 uM measured over 90 mins; format: toxicity, Danio rerio; conditions: zebrafish, 1.5 h
Danio rerio [10] = organism: Danio rerio; assay: Induction of larval immobilization in 7 dpf stage zebra fish PSA assessed as immobilization recovery level at 110 uM incubated for 90 mins followed by medium replacement and measured within 10 mins relative to control; format: toxicity, organism-based; conditions: zebrafish, in vivo, 1.5 h
Danio rerio [11] = organism: Danio rerio; assay: Induction of larval immobilization in 7 dpf stage zebra fish PSA assessed as immobilization recovery level at 190 uM incubated for 90 mins followed by medium replacement and measured within 10 mins relative to control; format: toxicity, organism-based; conditions: zebrafish, in vivo, 1.5 h
[12] = Toxicity in 4 to 5 hpf stage wild type zebrafish AB embryo assessed as induction of bradycardia at 4.5 to 22 nM under 14 hrs light and 10 hrs dark condition and measured at 3 dpf stage by microscopic analysis; parameters: species or system Danio rerio; conditions: in vivo, 0.022 µM
[13] = Neurotoxicity in 4 to 5 hpf stage wild type zebrafish AB embryo assessed as irregular inflated swim bladder at 4.5 to 22 nM under 14 hrs light and 10 hrs dark condition and measured at 5 dpf stage by microscopic analysis; format: toxicity, Danio rerio; conditions: in vivo, 0.022 µM
[14] = Neurotoxicity in 4 to 5 hpf stage wild type zebrafish AB embryo assessed as induction of head butting at 4.5 to 22 nM under 14 hrs light and 10 hrs dark condition and measured at 5 dpf stage by microscopic analysis; format: toxicity, Danio rerio; conditions: in vivo, 0.022 µM
[15] = Neurotoxicity in 4 to 5 hpf stage wild type zebrafish AB embryo assessed as induction of motor incoordination at 4.5 to 22 nM under 14 hrs light and 10 hrs dark condition and measured at 5 dpf stage by microscopic analysis; format: toxicity, Danio rerio; conditions: in vivo, 0.022 µM
[16] = Neurotoxicity in 4 to 5 hpf stage wild type zebrafish AB embryo assessed as effect on spasms at 4.5 to 22 nM under 14 hrs light and 10 hrs dark condition and measured at 5 dpf stage by microscopic analysis; format: toxicity, Danio rerio; conditions: in vivo, 0.022 µM
[17] = Neurotoxicity in 4 to 5 hpf stage wild type zebrafish AB embryo assessed as reduction in spontaneous coiling frequency at 4.5 to 22 nM under 14 hrs light and 10 hrs dark condition and measured at 24 hpf stage by microscopic analysis; format: toxicity, Danio rerio; conditions: in vivo, 0.022 µM

SMILES | Activity [1] | Activity [2] | Activity [3] | Activity [4] | Activity [5] | Activity [6] | Activity [7] | Activity [8] | Activity [9] | Activity (Danio rerio [10]) [%] | Activity (Danio rerio [11]) [%] | Activity [12] | Activity [13] | Activity [14] | Activity [15] | Activity [16] | Activity [17]
CC(C)[C@@H]1CC[C@]2(C)CCC[C@]3(C)OC(=O)O[C@H]1[C@@H]23 | Toxic | Toxic | Toxic | Toxic | Toxic | Toxic | Toxic | Toxic | Non-Toxic | 87 | 47 | – | – | – | – | – | –
C=C(C=O)C[C@@H]1C[C@H](O)[C@]2(C)O[C@@H]3C[C@@H]4O[C@@H]5C[C@]6(C)O[C@]7(C)CC[C@@H]8O[C@@H]9C[C@]%10(C)O[C@@H]%11C(C)=CC(=O)O[C@H]%11C[C@H]%10O[C@H]9C[C@@H](C)[C@H]8O[C@H]7C[C@H]6O[C@@]5(C)C/C=C\[C@H]4O[C@H]3C[C@H]2O1 [BREVETOXIN B] | – | – | – | – | – | – | – | – | – | – | – | Toxic | Toxic | Toxic | Toxic | Toxic | Non-Toxic
